Literature values in PubChem BioAssay AID1259410 (Chemical Carcinogenesis Research Information System (CCRIS), 2018).

Test system: rodent tumor promotion studies, tumor incidence
Experiment: CCRIS tumor promotion studies
From the text: The CCRIS database contains chemical records with carcinogenicity, mutagenicity, tumor promotion, and tumor inhibition test results. It was developed by the National Cancer Institute (NCI). Data are derived from studies cited in primary journals, current awareness tools, NCI reports, and other sources. Test results have been reviewed by experts in carcinogenesis and mutagenesis.
CCRIS provides historical information from the years 1985 - 2011. It is no longer updated.
This is an archive assay for CCRIS tumor promotion studies.

In the case of `O=C1O[C@H]([C@@H](O)CO)C(O)=C1O`, the outcome (Carcinogen: 1,2-DIMETHYLHYDRAZINE, 540-73-8, Doses [Carcinogen]: 20 MG/KG 1/WK FOR 4 WK, Doses [Promoter]: 0, 5% IN DIET FOR 36 WK (STUDY DURATION: 40 WK), Route [Carcinogen]: SUBCUTANEOUS, Route [Promoter]: ORAL, Species: RAT, Strain/Sex: F344/MALE) is listed as “colon: tumor”, the outcome (Carcinogen: BUTYLATED HYDROXYANISOLE, 25013-16-5, Doses [Carcinogen]: 2% IN DIET FOR 1 YR, Doses [Promoter]: 0, 2% IN DIET CONCOMITANTLY WITH CARCINOGEN FOR 1 YR (STUDY DURATION: 1 YR), Route [Carcinogen]: ORAL, Route [Promoter]: ORAL, Species: RAT, Strain/Sex: F344/MALE) is listed as “forestomach: squamous cell carcinoma” and the outcome (Carcinogen: METHYLNITROSOUREA, 684-93-5, Doses [Carcinogen]: 20 MG/KG 2/WK FOR 4 WK, Doses [Promoter]: 0, 5% IN DIET BEGINNING POST CARCINOGEN TREATMENT AND CONTINUING FOR 32 WK (STUDY DURATION: 36 WK), Route [Carcinogen]: INTRAPERITONEAL, Route [Promoter]: ORAL, Species: RAT, Strain/Sex: F344/MALE) is listed as “urinary bladder: papilloma; forestomach: carcinoma”. For the same compound, the outcome (Carcinogen: N-BUTYL-N-4(HYDROXYBUTYL)NITROSAMINE, 3817-11-6, Doses [Carcinogen]: 0.05% IN DRINKING WATER FOR 2 WK, Doses [Promoter]: 0, 5% IN DIET STARTING POST CARCINOGEN AND CONTINUING FOR 22 WK, LEFT URETER LIGATED 8 D POST CARCINOGEN (STUDY DURATION, Route [Carcinogen]: ORAL, Route [Promoter]: ORAL, Species: RAT, Strain/Sex: F344/MALE) was “bladder: papilloma”, the outcome (Carcinogen: N-BUTYL-N-(4-HYDROXYBUTYL)-NITROSAMINE, 3817-11-6, Doses [Carcinogen]: 0.05% IN DRINKING WATER FOR 4 WK, Doses [Promoter]: 0, 5% IN DIET FOR 32 WK BEGINNING POST CARCINOGEN TREATMENT (STUDY DURATION: 36 WK), Route [Carcinogen]: ORAL, Route [Promoter]: ORAL, Species: RAT, Strain/Sex: F344/MALE) was “urinary bladder: papilloma, carcinoma” and the outcome (Carcinogen: N-BUTYL-N-(4-HYDROXYBUTYL)-NITROSAMINE, 3817-11-6, Doses [Carcinogen]: 0.05% IN DRINKING WATER FOR 4 WK, Doses [Promoter]: 0, 5% IN DIET FOR 32 WK BEGINNING POST CARCINOGEN TREATMENT (STUDY DURATION: 36 WK), Route [Carcinogen]: ORAL, Route [Promoter]: ORAL, Species: RAT, Strain/Sex: LEW/MALE) was “urinary bladder: papilloma, carcinoma”. For the same compound, the outcome (Carcinogen: N-BUTYL-N-(4-HYDROXYBUTYL)NITROSAMINE [3817-11-6], Doses [Carcinogen]: 0.05% IN DRINKING WATER FOR 4 WK (STUDY DURATION: 40 WK), Doses [Promoter]: 2.5% IN DIET FOR 18 WK BEGINNING IMMEDIATELY POST LAST CARCINOGEN DOSE (STUDY DURATION: 40 WK), Route [Carcinogen]: ORAL, Route [Promoter]: ORAL, Species: RAT, Strain/Sex: F344/MALE) was “urinary bladder: tumor”, the outcome (Carcinogen: N-BUTYL-N-(4-HYDROXYBUTYL)NITROSAMINE, 3817-11-6, Doses [Carcinogen]: 0.05% IN DRINKING WATER FOR 2 WK, Doses [Promoter]: 0, 5% IN DIET FOR 32 WK BEGINNING POST CARCINOGEN TREATMENT (STUDY DURATION: 34 WK), Route [Carcinogen]: ORAL, Route [Promoter]: ORAL, Species: RAT, Strain/Sex: F344/MALE) was “urinary bladder: papilloma, carcinoma” and the outcome (Carcinogen: N-BUTYL-N-(4-HYDROXYBUTYL)NITROSAMINE, 3817-11-6, Doses [Carcinogen]: 0.05% IN DRINKING WATER FOR 4 WK, Doses [Promoter]: 0, 5% IN BASAL DIET CONTAINING 1.5% SODIUM BICARBONATE FOR 32 WK (STUDY DURATION: 36 WK), Route [Carcinogen]: ORAL, Route [Promoter]: ORAL, Species: RAT, Strain/Sex: F344/MALE) was “urinary bladder: carcinoma”. For the same compound, the outcome (Carcinogen: N-BUTYL-N-(4-HYDROXYBUTYL)NITROSAMINE, 3817-11-6, Doses [Carcinogen]: 0.05% IN DRINKING WATER FOR 4 WK, Doses [Promoter]: 0, 5% IN DIET FOR 32 WK (STUDY DURATION: 36 WK), Route [Carcinogen]: ORAL, Route [Promoter]: ORAL, Species: RAT, Strain/Sex: F344/MALE) was “urinary bladder: papilloma, carcinoma”, the outcome (Carcinogen: N-BUTYL-N-(4-HYDROXYBUTYL)NITROSAMINE, 3817-11-6, Doses [Carcinogen]: 0.05% IN DRINKING WATER FOR 4 WK, Doses [Promoter]: 0, 5% IN DIET FOR 32 WK BEGINNING POST CARCINOGEN TREATMENT (STUDY DURATION: 36 WK), Route [Carcinogen]: ORAL, Route [Promoter]: ORAL, Species: RATS, Strain/Sex: F344/SHI/MALE) was “bladder: papilloma, carcinoma” and the outcome (Carcinogen: N-BUTYL-N-(4-HYDROXYBUTYL)NITROSAMINE, 3817-11-6, Doses [Carcinogen]: 0.05% IN DRINKING WATER FOR 4 WK, Doses [Promoter]: 0, 5% IN DIET FOR 32 WK POST CARCINOGEN DOSE (STUDY DURATION: 36 WK), Route [Carcinogen]: ORAL, Route [Promoter]: ORAL, Species: RAT, Strain/Sex: F344/MALE) was “bladder: carcinoma or papilloma”. For the same compound, the outcome (Carcinogen: N-METHYL-N-NITROSOUREA, 684-93-5, Doses [Carcinogen]: 20 MG/KG 2/WK FOR 4 WK, Doses [Promoter]: 0, 5% IN DIET FOR 32 WK (STUDY DURATION: 32 WK), Route [Carcinogen]: INTRAPERITONEAL, Route [Promoter]: ORAL, Species: RAT, Strain/Sex: F344/MALE) was “forestomach: papilloma, carcinoma; urinary bladder: papilloma, carcinoma”, the outcome (Carcinogen: N-[4-(5-NITRO-2-FURYL)-2-THIAZOLYL]FORMAMIDE, 24554-26-5, Doses [Carcinogen]: 0.2% IN DIET FOR 6 WK, Doses [Promoter]: 0, 5% IN PROLAB DIET FOR 72 WK BEGINNING POST CARCINOGEN TREATMENT (STUDY DURATION: 78 WK), Route [Carcinogen]: ORAL, Route [Promoter]: ORAL, Species: RAT, Strain/Sex: F344/MALE) was “urinary bladder: carcinoma, carcinoma or papilloma” and the outcome (Carcinogen: N-bis(2-hydroxypropyl)nitrosamine (DHPN) (53609-64-6), Doses [Carcinogen]: 0.1% (w/v) in drinking water for 3 wk, then surgery for acid reflux esophagitis, study duration 34 wk, Doses [Promoter]: 0 (basal diet), 1% ascorbic acid, 1% ascorbic acid with 0.2% sodium nitrite, study duration 32 wk after first promoter d, Doses [Promoter]: 0 (basal diet), 1% ascorbic acid, 1% ascorbic acid with 0.2% sodium nitrite, study duration 32 wk after first promoter d, Route [Carcinogen]: Oral, Route [Promoter]: Oral, Species: Rat, Strain/Sex: F344/Male (24/group)) was “esophagus (p1-p4): papilloma; significant only for combined treatment in p4 segm”. For the same compound, the outcome (Carcinogen: N-methyl-N'-nitro-N-nitrosoguanidine (70-25-7), Doses [Carcinogen]: 0.01% in drinking water for 10 wk for initiation of glandular stomach tumors, 100 mg/kg intragastrically after 16 hr st, Doses [Promoter]: 0.1% or 1.0% in the diet from wk 11 to end of study in combination with 0.05%, 0.1%, or 0.2% sodium nitrite in drinki, Route [Carcinogen]: Oral and Intragastric, Route [Promoter]: Oral, Species: Rat, Strain/Sex: F344/Male (15/15)/(14/15)(15/15)(15/15)(15/15)(15/15)(14/15)) was “forestomach: squamous cell carcinoma, papilloma increased in incidence and/or se”.

For `Cc1nccc2c1[nH]c1ccccc12`, the outcome (Carcinogen: N-ETHYL-N-HYDROXYETHYLNITROSAMINE, 13147-25-6, Doses [Carcinogen]: 0.1% IN DRINKING WATER FOR 2 WK, Doses [Promoter]: 0, 1000 PPM IN DIET BEGINNING 1 WK POST CARCINOGEN TREATMENT AND CONTINUING FOR 23 WK (STUDY DURATION: 26 WK), Route [Carcinogen]: ORAL, Route [Promoter]: ORAL, Species: RAT, Strain/Sex: F344/MALE) is listed as “kidney: adenoma”.

For `[O-][Cl+3]([O-])([O-])O`, the outcome (Carcinogen: N-bis(2-hydroxypropyl)nitrosamine, 53609-64-6, Doses [Carcinogen]: 0.08 and 0.2% in drinking water for 4 wks at 7-10 wks of age, study duration to 39 wk of age, Doses [Promoter]: In utero (0.1% in diet of dams) and then in drinking water of weaned offspring for 2 wk. Dimethylbenz[a]anthracene, 57-9, Route [Carcinogen]: Oral, Route [Promoter]: In utero and in drinking water, Species: Rat, Strain/Sex: F344/Female (23, 16/group)) is listed as “thyroid: no increase in tumors even though increased follicular cell hyperplasia” and the outcome (Carcinogen: N-bis(2-hydroxypropyl)nitrosamine, 53609-64-6, Doses [Carcinogen]: 0.08 and 0.2% in drinking water for 4 wks at 7-10 wks of age, study duration to 39 wk of age, Doses [Promoter]: In utero (0.1% in diet of dams) and then in drinking water of weaned offspring for 2 wk, Route [Carcinogen]: Oral, Route [Promoter]: In utero and in drinking water, Species: Rat, Strain/Sex: F344/Male (12-15/group)) is listed as “none found”.

For `[K+]`, the outcome (Carcinogen: N-BIS-(2-HYDROXYPROPYL)NITROSAMINE [53609-64-6], Doses [Carcinogen]: 2800 MG/KG BW ONCE (STUDY DURATION: 83 WK), Doses [Promoter]: 1000 PPM IN DRINKING WATER FOR 82 WK BEGINNING 1 WK POST LAST CARCINOGEN DOSE (STUDY DURATION: 83 WK), Route [Carcinogen]: SUBCUTANEOUS, Route [Promoter]: ORAL, Species: RAT, Strain/Sex: F344/MALE) is listed as “thyroid gland: follicular cell carcinoma” and the outcome (Carcinogen: N-Ethyl-N-hydroxyethylnitrosamine, 13147-25-6, Doses [Carcinogen]: 500 ppm in drinking water for 2 wk, Doses [Promoter]: 0, 350, 1750 ppm in drinking water beginning post carcinogen treatment and continuing for 24 wk (study duration: 26 wk), Doses [Promoter]: 0, 350, 1750 ppm in drinking water beginning post carcinogen treatment and continuing for 24 wk (study duration: 26 wk), Route [Carcinogen]: Oral, Route [Promoter]: Oral, Species: Rat, Strain/Sex: F344/Male (15/group)) is listed as “kidney: renal cell tumors (no promoting effect observed)”.
